Measured values: patent US10781325B2, “Curable composition, curable ink, accommodating container, image forming device, image forming method, cured matter, and acrylamide compound” (Ricoh Company, Ltd., priority 2016, dated 2020)

Tests used:
[1] = Measuring of viscosity of curable compound (cone plate type rotatory viscometer); type: physicochemical; conditions: cone rotor, 50 rpm
Experimental: Viscosity of the thus-obtained curable compound was measured by a cone plate type rotatory viscometer (VISCOMETER TVE-22L, manufactured by TOKI SANGYO CO., LTD.) using a cone rotor (1°34′×R24) at a number of rotation of 50 rpm and at 25 degrees C. of hemathermal circulating water.

[2] = system: female rats of Slc: Wistar/ST series; assay: Limiting test based on Acute Oral Toxicity Test (OECD TG423, Acute Toxic Class Method); type: in vivo, rat; conditions: single gavage dose 2,000 mg/kg weight of body, six animals per testing article, observed 14 days
Excerpt: The curable compounds of Example 1a, Example 4a, Comparative Example 1a, and Comparative Example 2a were subject to the limiting test based on Acute Oral Toxicity Test (OECD TG423) according to Acute Toxic Class Method in the following manner to evaluate safeness.
Regarding the curable compound of the present disclosure as test article, 24 female rats of Slc: Wistar/ST series of 5 week old as animal used were ordered for Japan SLC, Inc. The animals were habituated for one week. No abnormalities were found in all of the rats (animals used) during the habituation period.
Based on the body weights measured two days before the initiation of administration, they were categorized into four groups (six rats per group) by the body weight stratified random sampling method so that the body weight of each individual was within ±20% of the average body weight of all of the individuals. The individuals not classified into the groups were excluded from the test.
First group, Example 1a: Testing article: curable compound represented by the chemical structure a1-1, Amount of administration: 2,000 mg/kg weight of body, number of animals used: six
Second group, Example 4a: Testing article: curable compound represented by the chemical structure d1-1, Amount of administration: 2,000 mg/kg weight of body, number of animals used: six
Third group, Comparative Example 1a: Testing article: N,N-diethylacrylamide represented by the chemical structure (1), Amount of administration: 2,000 mg/kg weight of body, number of animals used: six
Fourth group, Comparative Example 2a: Testing article: Acrylamide represented by the chemical structure (2), Amount of administration: 2,000 mg/kg weight of body, number of animals used: six
100 mg of the testing article was weighed using a measuring flask and water was added as solvent to make 1 mL in total. […] The preparation liquid of the testing article was prepared on the day of administration.
The animals used were on fasting except for water for 17 hours before administration. The mass was measured after the fasting and the testing article was provided by gavage administration one time using a gastric tube. After the administration, no food was given for another three to four hours.
The administration was on one dose of 2,000 mg/kg weight of body and six animals were used per testing article.
Note that the observation was counted from the day of the initiation of administration being regarded as Day 1.
The number of animals who died during the test period was counted.

Row | SMILES | Viscosity (25 degrees C., mPA · s) [1] [mPA · s] | Safeness (number of dead) [2]
1 | C=CC(=O)N(CC)CC [Comparative Example 1a, N,N-diethylacrylamide, reference compound] | 2.6 | 6
2 | C=CC(=O)N(C)CCOC [Comparative Example 2a, reference compound] | 2.4 | 6
3 | C=CC(=O)N(CC(=O)OCC)CC(=O)OCC [Comparative Example 3a, reference compound] | 69.2 | –
4 | C=CC(=O)N(C)CCOC(C)=O [Example 1a] | 8.4 | 3
5 | C=CC(=O)N(C)CCOC(=O)C(C)C [Example 2a] | 9.5 | –
6 | C=CC(=O)N(CCOC(C)=O)C(C)(C)C [Example 3a] | 16.4 | –
7 | C=CC(=O)N(C)CC(=O)OC [Example 4a] | 12.3 | 0
8 | C=CC(=O)N(C)CC(=O)OCC [Example 5a] | 11.4 | –
9 | C=CC(=O)N(C)CC(=O)OCCCC [Example 6a] | 11.9 | –
10 | C=CC(=O)N(C)CC(=O)OC(C)C [Example 7a] | 14.1 | –
11 | C=CC(=O)N(CCC)CC(=O)OCC [Example 8a] | 20.4 | –
12 | C=CC(=O)N(CC(=O)OC)C(C)C [Example 9a] | 25.4 | –

More lines, main results first:

Row | Viscosity (25 degrees C., mPA · s) [1] [mPA · s] | SMILES | Safeness (number of dead) [2]
13 | 22.1 | C=CC(=O)N(CC(=O)OC(C)C)C(C)C [Example 10a] | –
14 | 29.9 | C=CC(=O)N(CCCCCC)CC(=O)OC [Example 11a] | –
15 | 23.7 | C=CC(=O)N(CCCCCC)CC(=O)OCCCC [Example 12a] | –
16 | 8.9 | C=CC(=O)N(C)C(C)C(=O)OC (stereo not shown) [Example 13a] | –
17 | 6.9 | C=CC(=O)N(C)C(C)C(=O)OCC (stereo not shown) [Example 14a] | –
18 | 6.8 | C=CC(=O)N(C)C(C)C(=O)OC(C)C (stereo not shown) [Example 15a] | –
